Assay [1] concerns the target T1, Angiotensin-converting enzyme (Mus musculus, UniProt P09470).
T1 sequence (P09470 whole entry): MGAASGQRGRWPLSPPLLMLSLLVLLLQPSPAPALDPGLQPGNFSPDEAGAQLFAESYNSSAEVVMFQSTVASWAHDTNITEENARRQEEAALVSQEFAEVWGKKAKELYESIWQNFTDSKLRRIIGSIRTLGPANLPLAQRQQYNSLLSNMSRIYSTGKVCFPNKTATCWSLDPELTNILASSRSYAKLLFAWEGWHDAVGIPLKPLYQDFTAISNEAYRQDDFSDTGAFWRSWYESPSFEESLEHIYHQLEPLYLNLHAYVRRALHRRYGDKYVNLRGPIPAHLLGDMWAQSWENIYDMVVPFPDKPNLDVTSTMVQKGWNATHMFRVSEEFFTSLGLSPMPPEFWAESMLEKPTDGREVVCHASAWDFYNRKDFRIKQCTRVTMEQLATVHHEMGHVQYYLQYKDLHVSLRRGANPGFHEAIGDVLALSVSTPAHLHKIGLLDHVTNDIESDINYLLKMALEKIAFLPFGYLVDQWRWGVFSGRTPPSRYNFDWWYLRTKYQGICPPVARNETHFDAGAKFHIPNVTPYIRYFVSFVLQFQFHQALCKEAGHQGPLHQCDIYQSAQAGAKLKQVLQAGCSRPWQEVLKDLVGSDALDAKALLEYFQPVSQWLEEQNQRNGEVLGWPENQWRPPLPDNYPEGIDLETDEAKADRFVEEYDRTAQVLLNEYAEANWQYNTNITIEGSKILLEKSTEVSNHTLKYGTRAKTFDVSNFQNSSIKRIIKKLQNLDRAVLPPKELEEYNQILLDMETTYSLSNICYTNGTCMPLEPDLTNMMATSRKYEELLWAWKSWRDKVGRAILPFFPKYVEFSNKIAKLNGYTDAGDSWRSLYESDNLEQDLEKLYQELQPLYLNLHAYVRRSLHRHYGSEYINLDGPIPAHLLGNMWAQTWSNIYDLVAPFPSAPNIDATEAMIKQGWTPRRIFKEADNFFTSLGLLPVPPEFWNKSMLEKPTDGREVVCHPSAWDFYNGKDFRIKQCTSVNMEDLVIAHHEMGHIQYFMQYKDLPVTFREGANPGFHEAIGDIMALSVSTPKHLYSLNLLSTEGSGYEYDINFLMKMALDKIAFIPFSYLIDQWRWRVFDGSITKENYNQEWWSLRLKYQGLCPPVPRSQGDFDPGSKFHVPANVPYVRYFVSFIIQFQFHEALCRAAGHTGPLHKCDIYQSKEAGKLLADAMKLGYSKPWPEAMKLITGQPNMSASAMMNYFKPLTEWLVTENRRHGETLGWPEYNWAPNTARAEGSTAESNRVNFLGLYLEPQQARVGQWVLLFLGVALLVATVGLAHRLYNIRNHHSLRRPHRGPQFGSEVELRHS
The assay can be described thus: 50% Inhibitory potency against angiotensin I converting enzyme from mouse striatum.

Another assay addresses T2, Neprilysin (Mus musculus, UniProt Q61391).
T2 sequence (Q61391 whole entry): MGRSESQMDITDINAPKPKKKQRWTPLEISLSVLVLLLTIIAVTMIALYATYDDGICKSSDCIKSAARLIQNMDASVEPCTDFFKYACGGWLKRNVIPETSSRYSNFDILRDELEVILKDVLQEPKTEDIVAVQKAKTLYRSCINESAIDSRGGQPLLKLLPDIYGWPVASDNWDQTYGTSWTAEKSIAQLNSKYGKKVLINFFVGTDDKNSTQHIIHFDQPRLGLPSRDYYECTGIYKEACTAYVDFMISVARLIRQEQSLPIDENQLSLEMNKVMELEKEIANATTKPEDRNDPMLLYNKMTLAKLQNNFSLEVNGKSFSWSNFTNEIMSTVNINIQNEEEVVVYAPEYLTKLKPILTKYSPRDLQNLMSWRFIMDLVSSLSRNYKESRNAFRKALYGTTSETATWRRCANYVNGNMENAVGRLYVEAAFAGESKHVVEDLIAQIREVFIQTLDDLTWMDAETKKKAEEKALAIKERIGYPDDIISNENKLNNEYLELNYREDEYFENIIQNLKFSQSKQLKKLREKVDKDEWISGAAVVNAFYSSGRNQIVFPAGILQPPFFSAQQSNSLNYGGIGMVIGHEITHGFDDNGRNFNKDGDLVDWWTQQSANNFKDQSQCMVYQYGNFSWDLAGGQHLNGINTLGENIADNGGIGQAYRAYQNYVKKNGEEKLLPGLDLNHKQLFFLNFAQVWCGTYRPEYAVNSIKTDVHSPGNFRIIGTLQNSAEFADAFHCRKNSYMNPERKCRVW

For another assay, the system named is Mus musculus. The assay can be described thus: Number of writhings 10 min after intracerebroventricular administration of 10 microg 3 and ip administration of naloxone (10 min before compound is administered). In kind it is functional.
For assay [2], the target named is T1, Angiotensin-converting enzyme.
Description: 50% Inhibitory potency against Angiotensin I converting enzyme from mouse striatum.

Structures are written as SMILES. Where a SMILES comes first, the peptide text is derived from it.

Description for Neprilysin: 50% Inhibitory potency against enkephalinase from mouse striatum.

Consider `CC(C)CC(NC(=O)C(Cc1ccccc1)NCCC(=O)O)C(=O)O` (stereo not drawn), for which the IC50 – broadly, the midpoint of a concentration-inhibition curve – is > 100 µM in assay [1] and 11 µM on Neprilysin.

Take `CC(C)C[C@@H](NC(=O)[C@@H](Cc1ccccc1)NCC(=O)O)C(=O)O`: the 50% inhibitory concentration (IC50) against Neprilysin turned out to be 18 µM.

Turning to `CC(C)C[C@H](NC(=O)[C@H](Cc1ccccc1)NCC(=O)O)C(=O)O`, the IC50 (in assay [1]; on Neprilysin) was 2 µM each time.

`CC(C)CC(NC(=O)[C@H](Cc1ccccc1)NCC(=O)O)C(=O)O` (single isomer, unassigned): at Neprilysin, the IC50 amounted to 11 µM.

`C=CCN1CC[C@]23c4c5ccc(O)c4O[C@H]2C(=O)CC[C@@]3(O)[C@H]1C5` [NALOXONE] returned a Writhing number in the assay with Mus musculus of 31.2.

Compound `C=CCN1CC[C@]23c4c5ccc(O)c4O[C@H]2C(=O)CC[C@@]3(O)[C@H]1C5.CC(C)CC(NC(=O)C(Cc1ccccc1)C(=O)O)C(=O)O` came in with a Writhing number in the assay with Mus musculus of 29.7.

Consider `CC(C)CC(NC(=O)C(CC(=O)O)Cc1ccccc1)C(=O)O` (stereo not drawn), for which the IC50 in assay [1] amounted to 20 µM; against Neprilysin it was 0.8 µM.

As for `CC(C)C[C@H](NC(=O)[C@@H](N)Cc1ccccc1)C(=O)O` (H-Phe-Leu-OH), the IC50 is 700 µM in assay [2] and 20 µM against Neprilysin.

For `CC(C)C[C@H](NC(=O)[C@@H](Cc1ccccc1)NCC(=O)O)C(=O)O`, the IC50 at Neprilysin was > 100 µM.

Take `C[C@H](NC(=O)[C@H](Cc1ccccc1)NCC(=O)O)C(=O)O`: the results for the IC50 (in assay [1]; against Neprilysin) were 4 µM and 0.5 µM, respectively.

Compound `CC(C)CC(NC(=O)C(Cc1ccccc1)C(=O)O)C(=O)O` (stereo not drawn) displayed a Writhing number in the assay with Mus musculus of 29.7. Besides, the figures for the IC50 (in assay [2]; against Neprilysin) were > 1000 µM and 0.7 µM, respectively.

For the origin of these results see ChEMBL document CHEMBL1122448, “New carboxyalkyl inhibitors of brain enkephalinase: synthesis, biological activity, and analgesic properties” (J Med Chem, 1983).
